# Test results: patent publication US8969565B2, “Imidazo[1,2-b]pyridazine-based compounds, compositions comprising them, and methods of their use” (Lexicon Pharmaceuticals, Inc., priority 2012, dated 2015)
# pIC50: −log10 of the molar value.
# Tests used:
# AAK1 [1] = biological target: T1, AAK1 (Homo sapiens, UniProt Q2M2I8); assay: HEK281 cell-based assay (phospho-mu2 Western blot in transfected HEK293F cells); conditions: 3 hours incubation, read-out: CBA IC50
# T1 construct: HA; expressed in transfected cells; host or cells: HEK293F
# T1 sequence (Q2M2I8 1-863 isoform Q2M2I8-2): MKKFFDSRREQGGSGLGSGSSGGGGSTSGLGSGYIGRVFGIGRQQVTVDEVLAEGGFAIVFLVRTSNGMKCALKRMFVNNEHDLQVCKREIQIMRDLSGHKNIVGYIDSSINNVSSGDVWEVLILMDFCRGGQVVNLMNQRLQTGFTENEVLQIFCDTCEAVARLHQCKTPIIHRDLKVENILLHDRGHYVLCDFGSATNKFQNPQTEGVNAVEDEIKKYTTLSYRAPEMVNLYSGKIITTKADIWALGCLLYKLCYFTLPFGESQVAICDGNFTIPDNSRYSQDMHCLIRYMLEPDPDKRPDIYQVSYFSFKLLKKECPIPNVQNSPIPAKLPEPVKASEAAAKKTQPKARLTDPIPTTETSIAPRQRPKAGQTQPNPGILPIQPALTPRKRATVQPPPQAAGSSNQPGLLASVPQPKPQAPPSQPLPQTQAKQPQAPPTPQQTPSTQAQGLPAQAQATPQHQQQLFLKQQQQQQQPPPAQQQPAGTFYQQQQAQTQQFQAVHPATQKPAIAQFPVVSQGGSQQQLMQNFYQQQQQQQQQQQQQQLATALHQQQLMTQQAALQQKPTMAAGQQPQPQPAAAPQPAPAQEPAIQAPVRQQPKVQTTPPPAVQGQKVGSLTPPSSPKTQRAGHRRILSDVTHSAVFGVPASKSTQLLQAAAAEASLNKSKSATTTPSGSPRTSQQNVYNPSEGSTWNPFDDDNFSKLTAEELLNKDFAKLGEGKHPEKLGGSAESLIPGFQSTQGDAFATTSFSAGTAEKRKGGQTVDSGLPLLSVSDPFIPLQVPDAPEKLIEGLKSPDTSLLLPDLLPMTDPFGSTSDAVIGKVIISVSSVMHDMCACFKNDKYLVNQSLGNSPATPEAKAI
# How it was run: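 HEK293F cells co-transfected with full-length human AAK1/HA and Flag/AP2M1 were treated next day with 5 compound concentrations (3-fold dilutions) in DMEM+0.5% FBS for 3 hours at 37° C. Lysates were Western blotted for phospho-mu2, with total mu2 detected by anti-Flag.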
# AAK1 [2] = biological target: T1, AAK1; assay: P81 filter plate assay; type: biochemical; conditions: full-length human AAK1, Mu2 substrate
# Protocol: Compounds were serially diluted into a Labcyte LDV plate (Labcyte, cat#LP-0200) using a Mutiprobe (PerkinElmer) and Biomek FX (Beckman Coulter) so that the highest compound concentration was at 96 μM. Compounds were then pinged (75 nL per well) into a Greiner 384-well reaction plate (Greiner, #781076) using an ECHO 550 Liquid Handler (Labcyte). A total of 12 μl reaction buffer (IMAP buffer containing Tween and DTT, from Molecular Devices) was then added to each well of columns 1 and 13 for the negative controls and 12 μl of 2×AAK1 (0.2 nM full-length human protein, NCBI accession no. NP_055726.2) was added to the remaining wells. Enzyme was then pre-incubated with compound for 10 minutes at RT. Reactions were initiated upon Minitrak (PerkinElmer) addition of 12 μl substrate mix containing 2×Mu2 (0.2 μM, full length human protein), 2× cold ATP (2 μM), and 1.3 μCi of hot ^33P-ATP. Reactions proceeded for one hour at RT. Meanwhile, Millipore 384-well P81 filter plates (Millipore, catalog #MZPHNOW10) were placed on a plate washer (Zoom ZW, from Titertek) and pre-wet with 50 μl 1% phosphoric acid. Kinase reactions were then stopped upon addition of 24 μl of 2% phosphoric acid to each well and the Minitrak was then used to transfer 40 μl from each well into the pre-wet Millipore 384-well P81 filter plates. Reaction mixtures were incubated for 10 minutes at RT in the P81 plates, followed by washing five times with 100 μl/well of 1% phosphoric acid using the Zoom filter washer. The bottom of each filter plate was sealed followed by addition of 20 μl Microscint 40 to each well, sealing the top of the plates with Flashplate cover, and then waiting one hour until reading on the TopCount (PerkinElmer).
SMILES,pIC50 (AAK1 [1]),pIC50 (AAK1 [2])
"COCCOC(=O)N1CCN(c2ccc3ncc(-c4cccnc4OC)n3n2)CC1 [2-methoxyethyl 4-(3-(2-methoxypyridin-3-yl)imidazo[1,2-b]pyridazin-6-yl)piperazine-1-carboxylate]",≥ 7.00,≥ 8.00
"CC(C)(C)CC(=O)N1CCN(c2ccc3ncc(-c4ccccc4)n3n2)CC1 [3,3-dimethyl-1-(4-(3-phenylimidazo[1,2-b]pyridazin-6-yl)piperazin-1-yl)butan-1-one]",≥ 7.00,≥ 8.00
"NCc1ccc(-c2cnc3ccc(NCC4CCCN4CC(F)(F)F)nn23)cc1 (stereo not drawn) [3-(4-(aminomethyl)phenyl)-N-((1-(2,2,2-trifluoroethyl)pyrrolidin-2-yl)methyl)imidazo[1,2-b]pyridazin-6-amine]",≥ 7.00,≥ 8.00
"Oc1cccc(-c2cnc3ccc(NCCOC4CCCC4)nn23)c1 [3-(6-((2-(cyclopentyloxy)ethyl)amino)imidazo[1,2-b]pyridazin-3-yl)phenol]",≥ 6.00,≥ 8.00
"c1cc2c(cc1-c1cnc3ccc(NCCOC4CCCC4)nn13)OCO2 [3-(benzo[d][1,3]dioxol-5-yl)-N-(2-(cyclopentyloxy)ethyl)imidazo[1,2-b]pyridazin-6-amine]",≥ 6.00,≥ 7.00
"CC(C)(C)OC(=O)N1CCN(c2ccc3ncc(I)n3n2)CC1 [4-(3-Iodo-imidazo[1,2-b]pyridazin-6-yl)-piperazine-1-carboxylic acid tert-butyl ester]",≥ 7.00,≥ 8.00
"N#Cc1ccc(-c2cnc3ccc(NCCOC4CCCC4)nn23)s1 [5-(6-((2-(cyclopentyloxy)ethyl)amino)imidazo[1,2-b]pyridazin-3-yl)thiophene-2-carbonitrile]",≥ 7.00,≥ 8.00
"COc1ccccc1-c1cnc2ccc(N3CCN(C(=O)N4CCCCC4)CC3)nn12 [(4-(3-(2-methoxyphenyl)imidazo[1,2-b]pyridazin-6-yl)piperazin-1-yl)(piperidin-1-yl)methanone]",≥ 7.00,≥ 8.00
"COc1ccccc1-c1cnc2ccc(N3CCN(C(=O)N4CCCC4)CC3)nn12 [(4-(3-(2-methoxyphenyl)imidazo[1,2-b]pyridazin-6-yl)piperazin-1-yl)(pyrrolidin-1-yl)methanone]",≥ 7.00,≥ 8.00
"COc1ncccc1-c1cnc2ccc(N3CCN(C(=O)N4CCCCC4)CC3)nn12 [(4-(3-(2-methoxypyridin-3-yl)imidazo[1,2-b]pyridazin-6-yl)piperazin-1-yl)(piperidin-1-yl)methanone]",≥ 7.00,≥ 8.00
"COc1ncccc1-c1cnc2ccc(N3CCN(C(=O)N4CCCC4)CC3)nn12 [(4-(3-(2-methoxypyridin-3-yl)imidazo[1,2-b]pyridazin-6-yl)piperazin-1-yl)(pyrrolidin-1-yl)methanone]",≥ 7.00,≥ 8.00
"COc1cnccc1-c1cnc2ccc(N3CCN(C(=O)N4CCCC4)CC3)nn12 [(4-(3-(3-methoxypyridin-4-yl)imidazo[1,2-b]pyridazin-6-yl)piperazin-1-yl)(pyrrolidin-1-yl)methanone]",≥ 7.00,≥ 8.00
"O=C(N1CCCCC1)N1CCN(c2ccc3ncc(-c4ccccc4)n3n2)CC1 [(4-(3-phenylimidazo[1,2-b]pyridazin-6-yl)piperazin-1-yl)(piperidin-1-yl)methanone]",≥ 7.00,≥ 8.00
"O=C(N1CCCC1)N1CCN(c2ccc3ncc(-c4ccccc4)n3n2)CC1 [(4-(3-phenylimidazo[1,2-b]pyridazin-6-yl)piperazin-1-yl)(pyrrolidin-1-yl)methanone]",≥ 6.00,≥ 8.00
"Cc1nc(C)c(-c2cnc3ccc(NC[C@@H]4CCCN4C(=O)CC(C)C)nn23)s1 [(S)-1-(2-(((3-(2,4-dimethylthiazol-5-yl)imidazo[1,2-b]pyridazin-6-yl)amino)methyl)pyrrolidin-1-yl)-3-methylbutan-1-one]",≥ 8.00,≥ 8.00
"CC(C)CC(=O)N1CCC[C@H]1CNc1ccc2ncc(-c3cccc(Cl)c3)n2n1 [(S)-1-(2-(((3-(3-chlorophenyl)imidazo[1,2-b]pyridazin-6-yl)amino)methyl)pyrrolidin-1-yl)-3-methylbutan-1-one]",≥ 8.00,≥ 8.00
"CC(C)CC(=O)N1CCC[C@H]1CNc1ccc2ncc(-c3cccc(F)c3)n2n1 [(S)-1-(2-(((3-(3-fluorophenyl)imidazo[1,2-b]pyridazin-6-yl)amino)methyl)pyrrolidin-1-yl)-3-methylbutan-1-one]",≥ 8.00,≥ 8.00

SMILES,pIC50 (AAK1 [1]),pIC50 (AAK1 [2])
"COc1cccc(-c2cnc3ccc(NC[C@@H]4CCCN4C(=O)CC(C)C)nn23)c1 [(S)-1-(2-(((3-(3-methoxyphenyl)imidazo[1,2-b]pyridazin-6-yl)amino)methyl)pyrrolidin-1-yl)-3-methylbutan-1-one]",≥ 7.00,≥ 8.00
"CC(C)(C)C(=O)N1CCC[C@H]1CNc1ccc2ncc(-c3ccc(CN)cc3)n2n1 [(S)-1-(2-(((3-(4-(aminomethyl)phenyl)imidazo[1,2-b]pyridazin-6-yl)amino)methyl)pyrrolidin-1-yl)-2,2-dimethylpropan-1-one]",≥ 7.00,≥ 8.00
"CC(C)(C)CC(=O)N1CCC[C@H]1CNc1ccc2ncc(-c3ccc(CN)cc3)n2n1 [(S)-1-(2-(((3-(4-(aminomethyl)phenyl)imidazo[1,2-b]pyridazin-6-yl)amino)methyl)pyrrolidin-1-yl)-3,3-dimethylbutan-1-one]",≥ 7.00,≥ 8.00
"CCCC(=O)N1CCC[C@H]1CNc1ccc2ncc(-c3ccc(CN)cc3)n2n1 [(S)-1-(2-(((3-(4-(aminomethyl)phenyl)imidazo[1,2-b]pyridazin-6-yl)amino)methyl)pyrrolidin-1-yl)butan-1-one]",≥ 8.00,≥ 8.00
"CC(C)CC(=O)N1CCC[C@H]1CNc1ccc2ncc(-c3ccc(F)cc3)n2n1 [(S)-1-(2-(((3-(4-fluorophenyl)imidazo[1,2-b]pyridazin-6-yl)amino)methyl)pyrrolidin-1-yl)-3-methylbutan-1-one]",≥ 7.00,≥ 8.00
"COc1ccc(-c2cnc3ccc(NC[C@@H]4CCCN4C(=O)CC(C)C)nn23)cc1 [(S)-1-(2-(((3-(4-methoxyphenyl)imidazo[1,2-b]pyridazin-6-yl)amino)methyl)pyrrolidin-1-yl)-3-methylbutan-1-one]",≥ 6.00,≥ 8.00
"Cc1csc(-c2cnc3ccc(NCCOC4CCCC4)nn23)c1 [N-(2-(cyclopentyloxy)ethyl)-3-(4-methylthiophen-2-yl)imidazo[1,2-b]pyridazin-6-amine]",,≥ 7.00
"Cc1ccc(-c2cnc3ccc(NCCOC4CCCC4)nn23)s1 [N-(2-(cyclopentyloxy)ethyl)-3-(5-methylthiophen-2-yl)imidazo[1,2-b]pyridazin-6-amine]",,≥ 7.00
"c1csc(-c2cnc3ccc(NCCOC4CCCC4)nn23)c1 [N-(2-(cyclopentyloxy)ethyl)-3-(thiophen-2-yl)imidazo[1,2-b]pyridazin-6-amine]",,≥ 8.00
"c1cc(-c2cnc3ccc(NCCOC4CCCC4)nn23)cs1 [N-(2-(cyclopentyloxy)ethyl)-3-(thiophen-3-yl)imidazo[1,2-b]pyridazin-6-amine]",,≥ 7.00
"CC(C)NC(=O)N1CCN(c2ccc3ncc(-c4ccccc4)n3n2)CC1 [N-Isopropyl-4-(3-phenylimidazo[1,2-b]pyridazin-6-yl)piperazine-1-carboxamide]",,≥ 8.00
"COc1cnccc1-c1cnc2ccc(NC3CCCCC3)nn12 [N-cyclohexyl-3-(3-methoxypyridin-4-yl)imidazo[1,2-b]pyridazin-6-amine]",,≥ 8.00
"CC(C)OC(=O)N(C)[C@H]1CCN(c2ccc3ncc(Br)n3n2)C1 [[(S)-1-(3-Bromo-imidazo[1,2-b]pyridazin-6-yl)-pyrrolidin-3-yl]-methyl-carbamic acid isopropyl ester]",,≥ 8.00
"CCOC(=O)N1CCN(c2ccc3ncc(C(=O)NC)n3n2)CC1 [ethyl 4-(3-(methylcarbamoyl)imidazo[1,2-b]pyridazin-6-yl)piperazine-1-carboxylate]",,≥ 7.00
"CC(=O)c1cnc2ccc(N3CCN(C(=O)OC(C)C)CC3)nn12 [isopropyl 4-(3-acetylimidazo[1,2-b]pyridazin-6-yl)piperazine-1-carboxylate]",,≥ 7.00
"COC(=O)c1cnn(-c2ccc3ncc(-c4cccnc4OC)n3n2)c1 [methyl 1-(3-(2-methoxypyridin-3-yl)imidazo[1,2-b]pyridazin-6-yl)-1H-pyrazole-4-carboxylate]",,≥ 8.00
"COc1ncccc1-c1cnc2ccc(N3CC(N(C)C(=O)OC(C)(C)C)C3)nn12 [tert-butyl (1-(3-(2-methoxypyridin-3-yl)imidazo[1,2-b]pyridazin-6-yl)azetidin-3-yl)(methyl)carbamate]",,≥ 6.00
